Calls of active or inactive are those of the source.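 The calls were made as follows: active = fitted concentration giving half of the maximal binding block below 66 µM; inactive = the rest.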
Target: anti-desmoglein 3 scFv antibody binding to human desmoglein 3 (DSG3)
Test: inhibitors of anti-DSG3 scFv binding to DSG3, dose response, biochemical, DSG3-coupled beads, scFv-GFP, flow cytometry, Cherry Pick 1 (AID 602251)
Settings: for binding response, lower = inhibition: at 66.1 µM (top of the series)

CCOc1ccc2c(ccc(/C=C/c3cc(C)c4cccnc4c3O)[n+]2C)c1
EC50: 1.08 µM

Cc1c(OCC(=O)NCc2ccccn2)ccc2c(-c3ccccc3)cc(=O)oc12
binding response, lower = inhibition: inactive

CCOC(=O)c1cc(-c2ccc(/C=C3/C(=O)N(c4ccc(C(=O)O)cc4)N=C3C)o2)ccc1Cl
binding response, lower = inhibition: inactive

CCOc1ccc(NC(=O)c2ccc(NC(=O)CSc3nc4ccccc4c(=O)[nH]3)cc2)cc1
binding response, lower = inhibition: inactive

C=CCn1c(O)c(C2=c3ccccc3=NC2=O)s/c1=N/c1nccs1
EC50: 39.6 µM

COc1ccc(C(=O)Nc2ccc(Oc3ncnc4sc(-c5ccccc5)cc34)cc2)cc1OC
binding response, lower = inhibition: inactive

Cc1ccc(-n2ncc3c(=O)[nH]c(SCC(=O)N4CCN(c5ccccc5)CC4)nc32)cc1
binding response, lower = inhibition: inactive

COc1ccccc1-n1cnc2c(c1=O)c1nc3ccccc3nc1n2-c1ccc(C)c(C)c1
binding response, lower = inhibition: inactive

O=C(O)C1Nc2c(O)cc(Cl)c([N+](=O)[O-])c2C2C=CCC12 (stereo unspecified)
EC50: 27.7 µM

COc1ccc(C2=C(Nc3ccc(F)cc3)c3ccccc3C2=O)cc1
binding response, lower = inhibition: inactive

O=c1c2c([N+](=O)[O-])cc([N+](=O)[O-])cc2sn1Cc1ccccc1
EC50: 9.8 µM

CC(=O)Nc1cccc(NC(=O)CSc2ccc(C(F)(F)F)cc2[N+](=O)[O-])c1
binding response, lower = inhibition: inactive

O=C(Nc1ccc(N2CCN(C(=O)c3ccccc3)CC2)cc1)c1cc2ccccc2o1
binding response, lower = inhibition: inactive

Cc1cc(NC(=O)CSc2nnc(-c3c[nH]c4ccccc34)n2-c2ccc(F)cc2)no1
binding response, lower = inhibition: inactive

CCOc1ccc(N(CC(=O)NCCSCc2ccco2)S(=O)(=O)c2ccc(C)cc2)cc1
binding response, lower = inhibition: inactive

COc1ccccc1CNC(=O)COC(=O)c1ccc(S(=O)(=O)N2CCCC2)cc1
binding response, lower = inhibition: inactive

CN(C(=O)COC(=O)c1ccc(-c2ccc(O)cc2)cc1)C1CCS(=O)(=O)C1 (stereo unspecified)
binding response, lower = inhibition: inactive

O=C(NCCCN1CCOCC1)c1cc(-c2cccc(Br)c2)nc2ccccc12
binding response, lower = inhibition: inactive

CN(C)Cc1cc(O)c(CN(C)C)cc1O
binding response, lower = inhibition: inactive

Cc1cccc(NC(=O)Cn2nnc(C(=O)NCc3cccs3)c2N)c1C
binding response, lower = inhibition: inactive

O=C(Nc1ccc(-c2cn3c(n2)SCC3)cc1)c1ccc2c(c1)OCO2
binding response, lower = inhibition: inactive

O=C(Nc1nc2cc3c(cc2s1)OCCO3)c1ccc(N2C(=O)CCC2=O)cc1
binding response, lower = inhibition: inactive

COc1ccc(NC(=O)CSc2nc3c([nH]c4ccccc43)c(=O)n2C)c(OC)c1
EC50: 22.4 µM

O=C(NCc1ccccc1)c1ccc(C(=O)NCc2ccccc2)cc1
binding response, lower = inhibition: inactive

CCOc1ccc2nc(NC(=O)c3ccc(S(=O)(=O)N4CCOCC4)cc3)sc2c1
binding response, lower = inhibition: inactive

COc1ccc(-c2cn3c(C)c(C(=O)Nc4cccc(NC(C)=O)c4)sc3n2)cc1
binding response, lower = inhibition: inactive

N#Cc1cn(-c2ccccc2)nc1-c1ccc2c(c1)OCCO2
binding response, lower = inhibition: inactive

CC1CCN(S(=O)(=O)c2ccc3c(c2)c(=O)c(C(=O)NCc2cccs2)cn3C)CC1
EC50: 55.8 µM

CN(C)c1nc(N)ncc1-c1ccc(Oc2ccccc2)cc1
binding response, lower = inhibition: inactive

COC(=O)c1cc(/C=C/c2ccccc2)on1
binding response, lower = inhibition: inactive

CCOC(=O)c1cn(-c2ccc([N+](=O)[O-])cc2)c2cc(Cl)c([N+](=O)[O-])cc2c1=O
binding response, lower = inhibition: inactive

CCC(C)n1cnc2c(c1=O)c1nc3ccccc3nc1n2-c1ccc2c(c1)OCCO2 (stereo unspecified)
binding response, lower = inhibition: inactive

CN1C(=O)/C(=C/c2cccn2-c2ccc3ccccc3c2)C(=O)NC1=S
binding response, lower = inhibition: inactive

O=[N+]([O-])c1ccc(N=NNc2ccc([N+](=O)[O-])cc2)cc1
EC50: 58.8 µM

COc1ccc(NC(=O)Cn2nnc(C(=O)NCc3ccccc3)c2N)cc1Cl
binding response, lower = inhibition: inactive

O=C1NN(c2cccc(Br)c2)C(=O)/C1=C/c1ccc(-c2cc([N+](=O)[O-])ccc2O)o1
binding response, lower = inhibition: inactive

O=C(NCCN1C(=O)S/C(=C\c2ccc(Cl)c(Cl)c2)C1=O)c1cnccn1
binding response, lower = inhibition: inactive

CCN(CC)c1ccc(NC(=O)CCCCC(=O)Nc2ccc(N(CC)CC)cc2)cc1
EC50: 27.2 µM

CC(=O)Nc1cc(=O)c2cccnc2[nH]1
EC50: 25.4 µM

O=C(Nc1cc(Cl)ccc1Cl)c1ccc(OC(=O)c2ccco2)cc1
binding response, lower = inhibition: inactive

CCOC(=O)CN1C(=O)/C(=C/c2ccccc2Br)Oc2ccccc21
binding response, lower = inhibition: inactive

COc1ccc(Cl)c(NC(=O)NCCN2CCN(c3ccccc3)CC2)c1
binding response, lower = inhibition: inactive

CCOC(=O)Cn1c(=NC(=O)c2cccs2)sc2cc(C(=O)OC)ccc21
EC50: 26 µM

O=C(Nc1ccc(S(=O)(=O)NCc2ccccc2)cc1)C1CCCCC1
binding response, lower = inhibition: inactive

O=C(Cc1ccccc1)Nc1ccc(NC(=O)c2cccs2)cc1Cl
binding response, lower = inhibition: inactive

O=C1c2ccccc2C(=O)N1Cc1nn2c(-c3ccc(Cl)cc3)nnc2s1
EC50: 36 µM

CC(=O)c1c(C)n(-c2ccc(Cl)cc2)c2ccc(O)cc12
binding response, lower = inhibition: inactive

C#CCn1c(=NC(=O)c2sc3ccccc3c2Cl)sc2cc(S(N)(=O)=O)ccc21
binding response, lower = inhibition: inactive

O=C(COc1cc2oc(=O)c3c(c2cc1Cl)CCC3)Nc1ccccn1
binding response, lower = inhibition: inactive

CN1C(=CC=C2C=C(I)C(=O)C(I)=C2)C(C)(C)c2ccccc21
EC50: 15.7 µM

COc1cc2sc3ccc(C#Cc4ccccn4)cc3c(=O)c2cc1OC
binding response, lower = inhibition: inactive

Cc1ccc(C(C)C)c(OCC(=O)Nc2ccc(N3CCN(S(C)(=O)=O)CC3)cc2)c1
EC50: 20.9 µM

CCC(=O)N1CCc2cc(S(=O)(=O)N(C)c3ccc(Br)cc3)ccc21
binding response, lower = inhibition: inactive

O=C(Nc1ccc(NS(=O)(=O)c2ccccc2)cc1)c1ccc(Cl)cc1
binding response, lower = inhibition: inactive

CC(=O)Nc1ccc(-c2cc(-c3ccccc3)nc(-c3ccccc3)n2)cc1
binding response, lower = inhibition: inactive

O=C(Nc1ccc(Nc2ccccc2)cc1)c1ccc(Br)cc1
binding response, lower = inhibition: inactive

CCCCN(C)CCNC(=O)c1cc(-c2cccnc2)nc2ccc(S(=O)(=O)N3CCC(C)CC3)cc12
binding response, lower = inhibition: inactive

COc1ccc(Cl)cc1NC(=O)CSc1nc(NS(=O)(=O)c2ccc(C)cc2)cc(=O)[nH]1
binding response, lower = inhibition: inactive

COCCCNC(=O)c1c(N)n(-c2ccc(S(N)(=O)=O)cc2)c2nc3ccccc3nc12
EC50: 25.6 µM

CCOC(=O)N1CCC(NC(=O)c2cc3c(-c4ccccc4F)nn(C)c3s2)CC1
binding response, lower = inhibition: inactive

CCc1nnc(NC(=O)CSc2ncnc3c2oc2ccccc23)s1
binding response, lower = inhibition: inactive

Clc1ccc2nc(CSc3nnc(-c4c[nH]c5ccccc45)o3)cn2c1
EC50: 24.8 µM

O=C(Nc1ccc(N2CCOCC2)cc1)c1ccc2nc(-c3ccco3)c(-c3ccco3)nc2c1
EC50: 25.4 µM

Cc1sc(NC(=O)CSc2nnc3scc(-c4ccccc4)n23)c(C#N)c1C
binding response, lower = inhibition: inactive

COc1cc(OC)cc(C(=O)OCc2cc3ccccc3[nH]c2=O)c1
binding response, lower = inhibition: inactive

COCCn1c(=NC(=O)CCS(=O)(=O)c2ccccc2)sc2cc(C(=O)OC)ccc21
EC50: 25.4 µM

CCCNC(=O)c1c(N)n(-c2ccc(S(N)(=O)=O)cc2)c2nc3ccccc3nc12
binding response, lower = inhibition: inactive

CCOc1ccc(S(=O)(=O)N2CCN(C(=O)c3ccccc3Cc3ccccc3)CC2)cc1
binding response, lower = inhibition: inactive

COc1ccc2c(c1)c(N=NC(N)=S)c(O)n2CC(=O)c1ccccc1
binding response, lower = inhibition: inactive

COc1ccccc1NC(=O)Cn1nnc(-c2ccccc2NC(=O)c2cc3ccccc3oc2=O)n1
EC50: 25.8 µM

COc1ccc(CNC(=O)c2ccc(-c3ccccc3)cc2)cc1OC
binding response, lower = inhibition: inactive

Cc1ccc(NC(=O)CN2C(=O)N/C(=C/c3cccn3-c3ccc(C(=O)O)cc3)C2=O)cc1
EC50: 48.4 µM

O=C(Nc1ccc(F)cc1)Nc1ccc([N+](=O)[O-])cn1
EC50: 21.5 µM

COc1ccccc1NS(=O)(=O)c1cccc(NC(=O)c2cc3ccccc3oc2=O)c1
binding response, lower = inhibition: inactive

Cc1ccc(O)c(NC(=O)CSc2ccc(Cl)cc2)c1
binding response, lower = inhibition: inactive

COc1ccc(-c2cc(=O)oc3cc(OCC(=O)Nc4ccccn4)ccc23)cc1
binding response, lower = inhibition: inactive

O=C(Nc1ccc2oc(=O)ccc2c1)c1ccc(-c2ccccc2[N+](=O)[O-])o1
binding response, lower = inhibition: inactive

O=C(COC(=O)Cc1ccc(-c2ccccc2)cc1)NCc1ccc(F)cc1
binding response, lower = inhibition: inactive

COc1cccc(C(C(=O)NC2CCCCC2)N(CCN2CCOCC2)C(=O)C2COc3ccccc3O2)c1 (stereo unspecified)
binding response, lower = inhibition: inactive

COc1ccccc1C(=O)Nc1ccc(Oc2ncnc3sc(-c4ccccc4)cc23)cc1
binding response, lower = inhibition: inactive

O=[N+]([O-])c1ccc(NCCNc2ccc([N+](=O)[O-])cc2)cc1
binding response, lower = inhibition: inactive

COc1ccc(C(C(=O)NC2CCCCC2)N(CC2CCCO2)C(=O)C2COc3ccccc3O2)cc1OC (stereo unspecified)
binding response, lower = inhibition: inactive

O=c1c2ccccc2sn1-c1nccs1
EC50: 12.7 µM

COc1ccccc1NC(=O)c1cc(C(=O)Nc2ccccc2OC)cc([N+](=O)[O-])c1
EC50: 25.3 µM

Cc1ccc(NC(=O)c2sc(N)nc2-c2ccc([N+](=O)[O-])cc2)cc1C
binding response, lower = inhibition: inactive

CCOc1ccccc1NCc1cc(=O)oc2cc(C)c(O)cc12
binding response, lower = inhibition: inactive

COc1cc(C(C(=O)NC2CCCCC2)N(CCN2CCOCC2)C(=O)C2COc3ccccc3O2)cc(OC)c1OC (stereo unspecified)
binding response, lower = inhibition: inactive

CCc1ccc(-c2cc(C(=O)Nc3ccc(S(=O)(=O)NC(C)=O)cc3)c3ccccc3n2)cc1
binding response, lower = inhibition: inactive

COc1ccc(NC(=O)c2ccc3c(c2)C(=O)N(Cc2ccncc2)C3=O)cc1S(N)(=O)=O
binding response, lower = inhibition: inactive

COc1ccc(NC(=O)c2ccc3c(c2)C(=O)N(Cc2cccnc2)C3=O)cc1
binding response, lower = inhibition: inactive

C=CCn1c(SCC(=O)N2CCN(c3ccccc3)CC2)nc2c([nH]c3ccccc32)c1=O
EC50: 50.9 µM

Source: PubChem BioAssay AID602251 (NMMLSC, 2012)
